Test results reported in US6030960A, “Method of treating hepatitis virus infections” (priority 1998, dated 2000).
Where “and” joins values, the source holds several entries; their conditions need not be identical. Equal entries are not always repeated.

Assays:
Assay type in all cases: cell-based
[1] = Cytotoxicity of alkyl lipids, neutral red dye uptake (Table 1); details: human, hep-g2 cells
Text: (§1) Initially, evaluations of the alkyl lipids were done to determine whether the compounds were cytotoxic to the cells at concentrations having anti-HBV activity. The assay methodology is szt forth in Korba and Germ, Antiviral Res., 19, 55-70 (1992), incorporated by reference herein. Briefly, these cell cytotoxicity evaluations were done in 96-well plates seeded with HEP-G2 cell monolayers. The hepatoblastoma cell line HEP-G2 transfected with a plasmid carrying the gene that confers resistance to […] and four 5'-3' tandem copies of the Hepatitis B virus genome was obtained from Dr. George Acs. Proc. Natl. Acad. Sci. USA, 84, 1005-1009 (1987). Serial concentrations of compound were added to the RPMI-1640 growth medium and the growth medium was added to the 96-well plates containing the cell monolayers. The cells were incubated for a total of nine days at 37° C. The compound-containing medium was periodically replaced. Each compound was tested at four serial concentrations in triplicate. After nine days of treatment and incubation, 0.01% neutral red dye (Sigma, Inc.) was added to the overlay medium. Cell cytotoxicity was quantitated by measuring the average A510. Values in Table 1 represent the percentage of average A510 values (±standard deviation) relative to nine non-treated control wells.

Hepatitis B virus [2] = assay: Anti-hepatitis B virus activity in HEP-G2 cells persistently infected with HBV (Table 2); details: 10 μM; for activity at 10 µM: Hepatitis B virus, HepG2, 216 h, 9 days treatment
Description: HEP-G2 cells persistently infected with HBV were treated daily with fresh D-MEM containing 20% FBS and 10 μM compound. After 9 days incubation and treatment, the overlay medium was harvested to assay the quantity of Hepatitis B virus s antigen (HBsAg) and HBeAg by EIA (Abbott Laboratories). The overlay medium was diluted to levels of antigen in the linear range of the assay. Standard curves using dilutions of positive HBsAg and HBeAg controls were included in each assay. Virion DNA was assayed using the method set forth in Korba and Gerin, Antiviral Res., 19, 5,5-70 (1992), incorporated by reference herein. HBV DNA was extracted from the overlay medium containing virus particles and analyzed by a slot-blot hybridization technique using ^32 P-labelled 3.2 Kb Eco R1 HBV DNA fragment by comparisons to HBV standards present on nitrocellulose filters using an AMBIS beta scanner. EC90 values (90% effective concentration, i.e., drug concentration which induces a 90% decrease in the levels of HBV DNA replication intermediates in treated versus control cells) were calculated by linear regression analysis. The relative levels of HBsAg, HBeAg and virion DNA were calulated as a percentage of the average levels obtained from the untreated controls.

[3] = Cytotoxicity in HBV persistently infected human HEP G2 cells, neutral red dye uptake (Table 5); details: human, hep-g2 cells, Trial 2, read-out: % of Control Neutral Red Dye Uptake
Text: as §1
An analysis was periormed to determine the cytotoxicity of the following compounds in human HEP-G2 cells persistently infected with HBV: CP-51, CP-49, CP-9, CP-126, lyso PAF and CP-7. 2'-3'-Dideoxycytidine (ddC) was used as a control in this cytotoxicity analysis. The toxicity analyses were performed in 96-well flat bottomed tissue culture plates following the same procedure set forth in Example 6 above. Each compound was tested at four concentrations, each in triplicate cultures. Uptake of neutral red dye was used to determine the relative level of toxicity. The absorbance of internalized dye at […] (A510) was used for the quantitative analysis.
Values are presented as a percentage of the average A510 values (± standard deviations) in ninz separate cultures of untreated cells maintained on the same 96-well plate as the test compounds. The percentage of dye uptake in the nine control cultures was 100±1.

Hepatitis B virus [4] = assay: Effect of alkyl lipids on HBV replication in HBV persistently infected human HEP G2 cells (Table 6); details: for Intracellular HBV DNA, Mono (episomal 3.2-3.8 Kb HBV genomes) / Intracellular HBV DNA, RI (replication intermediates): nine days
Description: Cells were treated with a particular compound for nine days at 37° C. Analysis of intracellular HEIV DNA was done 24 hours following the ninth day of treatment. […] The levels of integrated HBV DNA in each cellular DNA preparation were used to calculate the levels of episomal 3.2-3.8 Kb HBV genomes (Mono) and HBV DNA replication intermediates (RI). A zero value indicates an undetectable level of HBV virion DNA. The sensitivity cut-off was 0.1 pg DNA/ml of culture medium.

Hepatitis B virus [5] = assay: Effect on synthesis of antigen markers in persistently infected human HEP G2 cell cultures (Table 7); details: nine days; for activity at 10 µM: Hepatitis B virus, HepG2, 216 h
Description: Cells were treated with compound for nine days at 37° C. The overlay medium was harvested to measure levels of HBsAg, HBeAg and virion DNA. HBsAg and HBeAg were assayed by EIA (Abbott Laboratories). Virion DNA levels were measured as described in section B above.

`CCCCCCCCCCCCCCCCCC(=O)NCC(COP(=O)([O-])OCC[N+](C)(C)C)OC` (centres unmarked) [CP-50] showed a cytotoxicity at 216 h, 30 µM [1] of 0%, a cytotoxicity at 216 h, 100 µM [1] of 5% and a viability at 216 h, 3 µM [1] of 97 ± 2%. It also gave a viability at 216 h, 10 µM [1] of 99 ± 2%, a viability at 216 h, 30 µM [1] of 100 ± 3% and a viability at 216 h, 100 µM [1] of 95 ± 2%. The “activity against HBV-induced virion DNA and HBeAg syntheses” value (Hepatitis B virus [2]; in words) was “no significant activity”, the activity at 10 µM (Hepatitis B virus [2]; read-out: Relative Level of HBeAg) was 93% and the activity at 10 µM (Hepatitis B virus [2]; read-out: Relative Level of HBsAg) was 104%. For the same molecule, the activity at 10 µM (Hepatitis B virus [2]; read-out: Relative Level of Virion DNA) was 88%.

Work on `CCCCCCCCCCCCCCCCCCOCC(O)COP(=O)([O-])OCC[N+](C)(C)C` (racemic) [lyso PAF, rac-3-octadecyloxy-2-hydroxy-1-propyl phosphocholine] yielded a viability at 216 h, 3 µM ([3]; 3 μM) of 98 ± 2%, a viability at 216 h, 10 µM ([3]; 10 μM) of 99 ± 1% and a viability at 216 h, 30 µM ([3]; 30 μM) of 98 ± 2%. For the same molecule, the viability at 216 h, 100 µM ([3]; 100 μM) was 40 ± 6%, the “HBV Virion DNA” value (Hepatitis B virus [4]; 0.1 μM, Day 0) was 62 pg/ml Culture Medium and 60 pg/ml Culture Medium and 81 pg/ml Culture Medium and 57 pg/ml Culture Medium and the “HBV Virion DNA” value (Hepatitis B virus [4]; 0.1 μM, Day 3) was 77 pg/ml Culture Medium and 81 pg/ml Culture Medium and 70 pg/ml Culture Medium and 69 pg/ml Culture Medium. The “HBV Virion DNA” value (Hepatitis B virus [4]; 0.1 μM, Day 6) was 80 pg/ml Culture Medium and 79 pg/ml Culture Medium and 64 pg/ml Culture Medium and 88 pg/ml Culture Medium, the “HBV Virion DNA” value (Hepatitis B virus [4]; 0.1 μM, Day 9) was 84 pg/ml Culture Medium and 96 pg/ml Culture Medium and 67 pg/ml Culture Medium and 92 pg/ml Culture Medium and the “Intracellular HBV DNA, Mono (episomal 3.2-3.8 Kb HBV genomes)” value (from here on “Intracellular HBV DNA, Mono”) (Hepatitis B virus [4]; 0.1 μM) was 2.5 pg/μg Cell DNA and 2.1 pg/μg Cell DNA and 2.0 pg/μg Cell DNA. The “Intracellular HBV DNA, RI (replication intermediates)” value (“Intracellular HBV DNA, RI” below) (Hepatitis B virus [4]; 0.1 μM) was 84 pg/μg Cell DNA and 96 pg/μg Cell DNA and 67 pg/μg Cell DNA and 71 pg/μg Cell DNA, the “HBV Virion DNA” value (Hepatitis B virus [4]; 1 μM, Day 0) was 52 pg/ml Culture Medium and 51 pg/ml Culture Medium and 63 pg/ml Culture Medium and 65 pg/ml Culture Medium and the “HBV Virion DNA” value (Hepatitis B virus [4]; 1 μM, Day 3) was 69 pg/ml Culture Medium and 61 pg/ml Culture Medium and 53 pg/ml Culture Medium. The “HBV Virion DNA” value (Hepatitis B virus [4]; 1 μM, Day 6) was 72 pg/ml Culture Medium and 79 pg/ml Culture Medium and 81 pg/ml Culture Medium, the “HBV Virion DNA” value (Hepatitis B virus [4]; 1 μM, Day 9) was 74 pg/ml Culture Medium and 83 pg/ml Culture Medium and 59 pg/ml Culture Medium and 88 pg/ml Culture Medium and the “Intracellular HBV DNA, Mono” value (Hepatitis B virus [4]; 1 μM) was 2.6 pg/μg Cell DNA and 2.9 pg/μg Cell DNA and 2.4 pg/μg Cell DNA. The “Intracellular HBV DNA, RI” value (Hepatitis B virus [4]; 1 μM) was 74 pg/μg Cell DNA and 83 pg/μg Cell DNA and 59 pg/μg Cell DNA and 84 pg/μg Cell DNA, the “HBV Virion DNA” value (Hepatitis B virus [4]; 10 μM, Day 0) was 52 pg/ml Culture Medium and 62 pg/ml Culture Medium and 60 pg/ml Culture Medium and 68 pg/ml Culture Medium and the “HBV Virion DNA” value (Hepatitis B virus [4]; 10 μM, Day 3) was 65 pg/ml Culture Medium and 71 pg/ml Culture Medium and 51 pg/ml Culture Medium and 50 pg/ml Culture Medium. For the same molecule, the “HBV Virion DNA” value (Hepatitis B virus [4]; 10 μM, Day 6) was 36 pg/ml Culture Medium and 34 pg/ml Culture Medium and 30 pg/ml Culture Medium and 32 pg/ml Culture Medium, the “HBV Virion DNA” value (Hepatitis B virus [4]; 10 μM, Day 9, 0 = undetectable, cut-off 0.1 pg DNA/ml) was 14 pg/ml Culture Medium and 18 pg/ml Culture Medium and 11 pg/ml Culture Medium and 13 pg/ml Culture Medium and the “Intracellular HBV DNA, Mono” value (Hepatitis B virus [4]; 10 μM) was 2.0 pg/μg Cell DNA and 2.4 pg/μg Cell DNA and 2.6 pg/μg Cell DNA and 2.8 pg/μg Cell DNA. For the same molecule, the “Intracellular HBV DNA, RI” value (Hepatitis B virus [4]; 10 μM) was 15 pg/μg Cell DNA and 22 pg/μg Cell DNA and 18 pg/μg Cell DNA and 21 pg/μg Cell DNA, the “Relative Level of HBeAg” value (Hepatitis B virus [5]; 10 μM, 12960 min) was 50 % of Untreated Control and the “Relative Level of HBsAg” value (Hepatitis B virus [5]; 10 μM, 12960 min) was 80 % of Untreated Control. The “Relative Level of Virion DNA” value (Hepatitis B virus [5]; 10 μM, 12960 min) was 15 % of Untreated Control, the activity at 10 µM (Hepatitis B virus [5]; read-out: Relative Level of HBeAg, 10 μM) was 45% and the activity at 10 µM (Hepatitis B virus [5]; read-out: Relative Level of HBsAg, 10 μM) was 78%. For the same molecule, the activity at 10 µM (Hepatitis B virus [5]; read-out: Relative Level of Virion DNA, 10 μM) was 13%.
